Earlier results in patent US20140227392A1, “BEER AND RELEVANT PRODUCTION METHOD” (FARCHIONI OLII - S.P.A., priority 2011, published 2014).

Conditions: compared with its precursor daidzein

With Oc1ccc([C@H]2COc3cc(O)ccc3C2)cc1 [S-(−) equol] as the molecule, how does the antioxidant activity read?
Its antioxidant activity is “significantly greater in antioxidant activity than its precursor”.
